# Data published in paper PMC10877577 (ACS Chemical Biology, 2024).
# Entries after “also recorded” stand apart in the source; their conditions may differ.
# Experiments:
# aMinoC1 sdAb = assay: SPR of peptide-Fc or small-molecule analytes against aMinoC1; assay type: binding, alpaca; settings: molecules closely related to minocycline
# Experimental: (§1) Binding assays were carried out using 1x HBS-EP+ running buffer. Various concentrations (2.5 μM with 2-fold serial dilutions) of the analyte were injected for 150 s at 30 μL/min with 150 s dissociation time. Glycine-HCl (pH 2.0) was used as the regeneration buffer for the sensor chips. For the rechallenge experiment, aMinoC1 was immobilized on a CM5 sensor chip and CX7C peptide-Fc conjugates were loaded at 100 nM and injected as the analyte for 150 s at 30 μL/min. Following the injection of peptide-Fc, a small molecule at 1 μM was injected for 300 s at 30 μL/min, using dual injection function on a Biacore 8k instrument, to dissociate the peptide-Fc from the aMinoC1-peptide complex. The system was then washed using HBS-P^+ buffer for 300 s at 30 μL/min prior to rechallenge with peptide-Fc. The cycle was repeated three times following a final dissociation step of 300 s. For the alanine scanning experiments, the anti-minocycline antibody (sdAb-muIgG2a-Fc fusion) was captured on a Protein A series S sensor chip, to a density of 3000 RU. […] Glycine-HCl (pH 1.5) was used as the regeneration buffer. In each case, flow cell 1 was used for reference subtraction, and a “0 concentration” sensogram of buffer alone was used as a double reference subtraction to factor for drift. Data analysis was carried out using Biacore T200 Evaluation Software, version 3.0, and Biacore Insight evaluation software. […]
# aMinoC22 sdAb = assay: SPR of related small molecules against aMinoC22; assay type: binding, alpaca; settings: molecules closely related to minocycline
# Experimental: as §1
# aMinoC1-peptide complex = assay: SPR rechallenge: small-molecule-driven dissociation of peptide-Fc from immobilized aMinoC1; assay type: binding; settings: peptide-Fc 100 nM, small molecule 1 μM
# Experimental: Binding assays were carried out using 1x HBS-EP+ running buffer. Various concentrations (2.5 μM with 2-fold serial dilutions) of the analyte were injected for 150 s at 30 μL/min with 150 s dissociation time. Glycine-HCl (pH 2.0) was used as the regeneration buffer for the sensor chips. For the rechallenge experiment, aMinoC1 was immobilized on a CM5 sensor chip and CX7C peptide-Fc conjugates were loaded at 100 nM and injected as the analyte for 150 s at 30 μL/min. Following the injection of peptide-Fc, a small molecule at 1 μM was injected for 300 s at 30 μL/min, using dual injection function on a Biacore 8k instrument, to dissociate the peptide-Fc from the aMinoC1-peptide complex. The system was then washed using HBS-P^+ buffer for 300 s at 30 μL/min prior to rechallenge with peptide-Fc. The cycle was repeated three times following a final dissociation step of 300 s. For the alanine scanning experiments, the anti-minocycline antibody (sdAb-muIgG2a-Fc fusion) was captured on a Protein A series S sensor chip, to a density of 3000 RU. […] Glycine-HCl (pH 1.5) was used as the regeneration buffer. In each case, flow cell 1 was used for reference subtraction, and a “0 concentration” sensogram of buffer alone was used as a double reference subtraction to factor for drift. Data analysis was carried out using Biacore T200 Evaluation Software, version 3.0, and Biacore Insight evaluation software. The 1:1 Langmuir binding model was used to calculate the association (ka), dissociation (kd) rate constants, and equilibrium dissociation constant (KD).
# [1] = tested on: MinoCAR-transduced PBMC against SupT1-EGFR+ target cells; assay type: cell-based; settings: 0.1, 1 and 10 μM, 24 h, 1:2 E/T
# Experimental: Transduced CAR T cells were determined by staining for the transduction marker RQR8 and normalized by the addition of nontransduced T cells. Effector cells were cocultured with 5.0 × 10^4 number of target cells (SupT1-NT, SupT1-EGFR+, SKOV3-mKate) to achieve the desired effector cell to target ratio. […] Cocultures were incubated for 24–72 h at 37 °C and 5% CO2. After incubation, plates were centrifuged at 400g for 5 min, and the supernatant containing secreted cytokines was collected for cytokine analysis. Cells were stained with anti-hCD34-APC and anti-CD3-PeCy7 to differentiate effector T cells and target cells. Cells were washed with 300 μL o PBS and stained with SYTOX Blue Dead Cell Stain dye. The percentage of target cell survival was measured relative to the number of live target cells cocultured with nonspecific CAR T cells or nontransduced PBMCs.
# TetRB = settings: cited from earlier work
# [2] = SPR of anti-minocycline sdAb-Fc clones binding to minocycline
# Experimental: as §1
# [3] = Isothermal titration calorimetry of aMinoC1 binding to minocycline; settings: sdAb-Fc 2 μM titrated with minocycline 50 μM, 25 °C; read-out: KD (ITC)
# Experimental: ITC measurements were performed using the PEAQ-ITC nonautomated (MicroCal) at 25 °C. The antibody sample was dialyzed overnight using 5 L of PBS (20 mM Na3PO4, 150 mM NaCl, pH 7.4). […] The concentration of the anti-minocycline sdAb (as murine IgG2a Fc fusion) was determined using extinction coefficients ε280 nm = 31,065 M^–1 cm^–1.
# [4] = nanoDSF thermal unfolding of aMinoC1; assay type: physicochemical
# Experimental: A dye-free protocol was used whereby the intrinsic fluorescence of tryptophan and tyrosine was measured by scanning samples at 330 and 350 nm to determine protein unfolding. […] Melting scan was carried out by setting the run at 1 °C/min temperature increments from 20 to 95 °C. Tm was calculated as first derivative of 350/330 nm ratio.
Molecule,binding to aMinoC1 (SPR) (aMinoC1 sdAb),binding to aMinoC22 (SPR) (aMinoC22 sdAb),GWARA-Fc dissociation from immobilized aMinoC1 on small-molecule injection (aMinoC1-peptide complex),"peptide-Fc (HWAQA, PWAYS and QWAMM) dissociation from immobilised aMinoC1 on small-molecule injection (aMinoC1-peptide complex)",effect of other small molecules on MinoCAR cytotoxicity [1],Kd (TetRB),ka [2],kd [2],Kd [3],"first unfolding midpoint (Tm50) ([4]; aMinoC1 alone, PBS pH 7.4)",improvement of Tm50 with minocycline ([4]; minocycline 1 nM to 2.5 mM),Tm50 on coincubation with minocycline ([4]; minocycline ranging from 1 nM to 2.5 mM)
CN(C)[C@@H]1C(O)=C(C(N)=O)C(=O)[C@@]2(O)C(O)=C3C(=O)c4c(O)cccc4[C@@](C)(O)[C@H]3C[C@@H]12 [tetracycline],Neither sdAb showed an interaction; also recorded: lack of binding; also recorded: without cross-reactivity,Neither sdAb showed an interaction; also recorded: lack of binding,No enhanced dissociation,No enhanced dissociation,not affected,2.8 nM,–,–,–,–,–,–
"aMinoC1: anti-minocycline single-domain antibody clone 1 from immunized alpaca, tested as sdAb-Fc (antibody, V domains shown) VH: QVQLESGGGLVQPGSSLRLSCAASGRTFSSYNIGWFRQAPKEREFVAAISWSGARTYYADSVKGRFTISRDNAKNTVYLQMNSLKPEDTAVYSCAAGRGWGTEAILDYWGQGTQVSSA",–,–,–,–,–,–,1.13e+06 M⁻¹ s⁻¹,0.036 s⁻¹,24.9 nM,79.5 °C,over 10 °C,89.6 °C
